In patent publication US20240130675A1, “Methods for Treating Autism Spectrum Disorder” (The General Hospital Corporation, priority 2021, published 2024):

Test system: youth with ASD
Assay: 12-week randomized, double-blind, placebo-controlled trial: efficacy on autism related impairments (SRS-2, CGI-I, ABC-Social Withdrawal, CY-BOCS-PDD)
Format: in vivo, human
Design: SRS-SCI / SRS-Social Cognition / SRS-Social Awareness / SRS-Social Motivation / SRS-Social Communication / SRS-Autistic Mannerisms / ABC-Social Withdrawal: scale not given here
Conditions: for ABC-Social Withdrawal / CY-BOCS-PDD / SRS-Autistic Mannerisms / SRS-SCI / SRS-Social Awareness / SRS-Social Cognition / SRS-Social Communication / SRS-Social Motivation / SRS-Total: MEM [N = 16]
Description: This study was a 12-week, randomized, double-blind, placebo-controlled, parallel group clinical trial of memantine in youth with ASD. Youth with ASD who met the eligibility criteria were randomized to receive either memantine or placebo during the course of the 12-week trial. Participants underwent multimodal MRI scans prior to and upon completion of the 12-week trial. Participants were assessed weekly during the titration phase (baseline to Week 4) and at midpoint (Week 6), Week 9, and completion (Week 12) during the maintenance phase. At each study visit, safety and efficacy were assessed by administering measures of efficacy (CGI, GAF), tolerability (assessing treatment-emergent AEs), and safety (vital signs, including weight). At baseline, midpoint, and endpoint (completion/early termination) severity of autism was assessed by administering measures of autism severity (SRS-2, ABC-SW, CY-BOCS-PDD) and associated psychopathology (ADHD-RS, CDRS-R, CASI-ANX).
Eligible participants were of both sexes, aged 8 to 17 years, with intact intellectual ability, as established by a full-scale intelligence quotient of 85 or greater based on the Vocabulary and Matrix Reasoning subtests of the Wechsler Abbreviated Scale of Intelligence-Second Edition (WASI-II (Wechsler, 2011)). Participants were required to meet DSM-IV-TR/5 diagnostic criteria for autism, as established by clinical diagnostic evaluation and to have at least moderate severity of ASD, as determined by a total raw score of 85 or greater on the informant-rated Social Responsiveness Scale-Second Edition (SRS-2; (Constantino et al., 2003)) and a score of 4 or greater on the clinician-rated National Institute of Mental Health (NIMH) Clinical Global Impression (CGI) severity scale (CGI-S; (National Institute of Mental Health, 1985)).
In this 12-week, randomized, double-blind, placebo-controlled, parallel group clinical, ASD participants were randomized in a 1:1 ratio to receive memantine or placebo. An independent statistician created a computer-generated randomization schedule, using stratified randomization by sex (male vs. female) and race (Caucasian vs. Non-Caucasian). The Clinical Trials Pharmacy at MGH dispensed the study medication (memantine and placebo) based on the randomization schedule. The randomization schedule remained confidential throughout the study.
Study medication was titrated to the maximum daily dose during the first 4 weeks of the trial (dose titration phase) and from there on, subjects were maintained on maximum achieved dose until the end of the trial (dose maintenance phase). Titration of the study medication was guided by a flexible titration schedule which allowed for slower titration or maintaining at a lower dose, as guided by study clinician judgment of tolerability. Study medication was administered in divided dosages. Study medication was initiated at 2.5 mg/day (raised to 5 mg/day on day 4) and was up-titrated by 5 mg/week to a maximum dose of 20 mg/day.
The efficacy of memantine for the treatment of autism related impairments was assessed by the informant-rated Social Responsiveness Scale—Second Edition (SRS-2) as continuous outcome measure, and by the clinician-rated CGI-I subscale, as categorical outcome measure. Treatment response criteria for this trial was defined as≥25% improvement on the SRS-2 and a score of 2 or 1 on the CGI-I subscale, i.e., “much” or “very much improved.”
Additional treatment response of autism impairment was examined for the ASD subdomains by assessing change with treatment in the severity of the SRS-2 subscales and the Children's Yale Brown Obsessive Compulsive Scale modified for PDD (CY-BOCS-PDD) (Goodman et al., 1986 (Rev 89); Scahill et al., 2006) to assess change with treatment in the ritualistic behaviors associated with ASD. […]

CC12CC3CC(C)(C1)CC(N)(C3)C2 [MEM, memantine]
SRS-Social Awareness, ES [95% CI] (Cohen's d, MEM vs PBO): 0.74 | SRS-Social Cognition, ES [95% CI] (Cohen's d, MEM vs PBO): 0.83 | ABC-Social Withdrawal (BL (baseline)): 12.5 ± 8.6 | CY-BOCS-PDD (BL (baseline)): 2.9 ± 5.4 | SRS-Autistic Mannerisms (BL (baseline)): 21.1 ± 5.9 | SRS-SCI (BL (baseline)): 93.5 ± 17.0 | SRS-Social Awareness (BL (baseline)): 14.3 ± 3.0 | SRS-Social Cognition (BL (baseline)): 20.0 ± 3.9 | SRS-Social Communication (BL (baseline)): 40.1 ± 8.1 | SRS-Social Motivation (BL (baseline)): 19.1 ± 6.9 | SRS-Total (BL (baseline)): 114.5 ± 21.3 | ABC-Social Withdrawal (EP (endpoint)): 5.6 ± 5.4 | CY-BOCS-PDD (EP (endpoint)): 1.9 ± 4.0 | SRS-Autistic Mannerisms (EP (endpoint)): 13.4 ± 3.8 | SRS-SCI (EP (endpoint)): 63.8 ± 20.0 | SRS-Social Awareness (EP (endpoint)): 10.7 ± 3.0 | SRS-Social Cognition (EP (endpoint)): 13.7 ± 4.5 | SRS-Social Communication (EP (endpoint)): 27.0 ± 10.4 | SRS-Social Motivation (EP (endpoint)): 12.4 ± 5.7 | SRS-Total (EP (endpoint)): 77.0 ± 22.5 | ABC-Social Withdrawal (MD (mean difference)): −6.9 ± 7.0 | CY-BOCS-PDD (MD (mean difference)): −0.9 ± 2.1 | SRS-Autistic Mannerisms (MD (mean difference)): −7.8 ± 6.4 | SRS-SCI (MD (mean difference)): −29.8 ± 22.2 | SRS-Social Awareness (MD (mean difference)): −3.6 ± 3.9 | SRS-Social Cognition (MD (mean difference)): −6.3 ± 5.6 | SRS-Social Communication (MD (mean difference)): −13.0 ± 9.4 | SRS-Social Motivation (MD (mean difference)): −6.8 ± 5.4 | SRS-Total (MD (mean difference)): −37.6 ± 27.9 | ≥25% ↓↓SRS + CGI-I ≤ 2, ES [95% CI] (Odds Ratio, MEM vs PBO): 4.82
